The Emax is the greatest response seen or fitted, relative to the assay's reference.

The target of this assay is T1, Human AMPK α2β2γ1 (Homo sapiens, UniProt O43741+P54646).
T1 construct: The full length cDNAs of human AMPK β2 (NM_005399.3) and human AMPK α2 (NM_006252.3); The full length cDNAs of human AMPK β2 (NM_005399.3); the full length cDNA of human AMPK γ1 (NM_002733.3) had been inserted into pET28b(+); 6×His (N); made in house; host or cells: Escherichia coli BL21 CodonPlus (DE3)-RIL
The assay can be described thus: Test Example 2: activation of phosphorylated human AMPK α2β2γ1 (mobility-shift kinase assay, FL-Peptide 7). It is filed as biochemical. The settings on record: for EC150: compound concentration showing 150% relative to the control (100%), human AMPK α2β2γ1 phosphorylated with CaMKK2; for Emax: maximum rate of increase in activity within the measurement range, control = 100%, read-out: Emax. In short, it runs like this: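 His-tagged α2β2γ1 expressed in E. coli was pre-phosphorylated by GST-CaMKKβ (25 °C, 1–1.5 h), then exposed to compound for 10 min (1% DMSO). Reaction: pH 7.0 HEPES, ATP and 1.5 μM FL-Peptide 7 (final), 2 h at 25 °C. Mobility-shift conversion gave % activity increase versus compound-free control.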

SMILES strings stand for the structures.

T1 sequence (P54646 whole entry): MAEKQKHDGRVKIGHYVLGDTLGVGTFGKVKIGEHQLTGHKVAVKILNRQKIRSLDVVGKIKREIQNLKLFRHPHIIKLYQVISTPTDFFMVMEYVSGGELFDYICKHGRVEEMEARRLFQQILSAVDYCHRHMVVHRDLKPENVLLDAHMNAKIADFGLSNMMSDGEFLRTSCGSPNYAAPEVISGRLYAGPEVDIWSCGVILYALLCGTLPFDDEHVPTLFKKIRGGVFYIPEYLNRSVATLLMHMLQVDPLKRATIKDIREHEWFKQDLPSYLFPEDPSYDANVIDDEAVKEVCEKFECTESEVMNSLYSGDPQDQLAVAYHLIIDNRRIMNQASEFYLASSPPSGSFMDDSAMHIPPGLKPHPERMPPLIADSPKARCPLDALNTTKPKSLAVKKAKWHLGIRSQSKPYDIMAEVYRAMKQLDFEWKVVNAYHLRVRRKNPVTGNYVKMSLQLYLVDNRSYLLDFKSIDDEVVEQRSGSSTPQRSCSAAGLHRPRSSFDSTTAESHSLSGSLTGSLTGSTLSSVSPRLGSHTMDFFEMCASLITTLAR
T1 sequence (O43741 whole entry): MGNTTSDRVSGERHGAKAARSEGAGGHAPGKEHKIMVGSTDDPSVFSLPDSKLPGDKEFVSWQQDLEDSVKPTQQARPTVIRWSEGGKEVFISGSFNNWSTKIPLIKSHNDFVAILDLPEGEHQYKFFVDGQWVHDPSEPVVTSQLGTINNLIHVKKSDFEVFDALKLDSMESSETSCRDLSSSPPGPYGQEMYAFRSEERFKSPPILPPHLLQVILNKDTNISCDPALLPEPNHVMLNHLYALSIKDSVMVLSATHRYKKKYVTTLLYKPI
T1 sequence (P54619 whole entry partner): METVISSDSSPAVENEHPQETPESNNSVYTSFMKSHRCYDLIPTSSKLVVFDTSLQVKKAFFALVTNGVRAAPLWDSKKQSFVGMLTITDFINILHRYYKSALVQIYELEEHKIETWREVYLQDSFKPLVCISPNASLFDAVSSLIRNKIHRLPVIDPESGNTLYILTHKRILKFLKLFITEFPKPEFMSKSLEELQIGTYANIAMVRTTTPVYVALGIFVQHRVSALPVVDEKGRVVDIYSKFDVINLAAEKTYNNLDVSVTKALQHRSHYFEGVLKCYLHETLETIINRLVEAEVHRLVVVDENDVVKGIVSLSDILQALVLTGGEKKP

In the case of `O=C(C1CCN(c2ccc(-c3nc4cc(O[C@@H]5CO[C@H]6[C@@H]5OC[C@H]6O)[nH]c4cc3F)cc2)CC1)N1CCCC1` [Compound I-2-44], the EC150 is 35 nM and the maximum response (Emax) was found to be 661%.

As to `O[C@@H]1CO[C@H]2[C@@H]1OC[C@H]2Oc1cc2nc(-c3ccc(-c4ccc(Oc5ccncc5)cc4)cc3)c(F)cc2[nH]1` [Compound I-2-45], the EC150 is recorded as 5 nM and the Emax worked out at 613%.

On to `CNS(C)(=O)=Nc1ccc(-c2ccc(-c3nc4cc(O[C@@H]5CO[C@H](CO)C5)[nH]c4cc3F)cc2)cc1` (some centres unmarked) [Compound I-2-46], for which the EC150 was found to be 2.8 nM and the Emax stood at 699%.

Regarding `CNC(=O)COc1ccc(-c2ccc(-c3nc4cc(O[C@@H]5CO[C@H]6[C@@H]5OC[C@H]6O)[nH]c4cc3F)cc2)cc1` [Compound I-2-47], the EC150 is 2.2 nM and the maximum response (Emax) was found to be 635%.

Take `COCCOCCOc1ccc(-c2ccc(-c3nc4cc(O[C@@H]5CO[C@H]6[C@@H]5OC[C@H]6O)[nH]c4cc3F)cc2)cc1` [Compound I-2-48]: the EC150 is reported as 1.1 nM and the Emax was found to be 635%.

For `O=C(c1ccc(-c2ccc(-c3nc4cc(O[C@@H]5CO[C@H](CO)C5)[nH]c4cc3F)cc2)cc1)N1CCCC1` [Compound I-2-49], the EC150 is 0.88 nM and the Emax was 684%.

For `COC(=O)N1CCC(Oc2ccc(-c3ccc(-c4nc5cc(O[C@@H]6CO[C@H]7[C@@H]6OC[C@H]7O)[nH]c5cc4F)cc3)cc2)C1` (some centres unmarked) [Compound I-2-51], the EC150 was 9.7 nM and the Emax worked out at 590%.

As to `COCCOc1ccc(-c2ccc(-c3nc4cc(O[C@@H]5CO[C@H]6[C@@H]5OC[C@H]6O)[nH]c4cc3F)cc2)nc1` [Compound I-2-52], the EC150 came out at 7.2 nM and the Emax was 532%.

As to `CN1CCN(c2ccc(-c3ccc(-c4nc5cc(O[C@@H]6CO[C@H]7[C@@H]6OC[C@H]7O)[nH]c5cc4F)cc3)cc2)C1=O` [Compound I-2-53], the EC150 was determined as 4.2 nM and the Emax was 638%.

As to `CNC(=O)CCOc1ccc(-c2ccc(-c3nc4cc(O[C@@H]5CO[C@H]6[C@@H]5OC[C@H]6O)[nH]c4cc3F)cc2)cc1` [Compound I-2-54], the EC150 is on record as 1.7 nM and the maximal effect (Emax) came to 633%.

Regarding `CCO[C@H]1[C@@H](CO)OC[C@H]1Oc1cc2nc(-c3ccc(-c4ccc(N=S(C)(C)=O)cc4)cc3)c(F)cc2[nH]1` [Compound I-2-55], the EC150 stood at 19 nM and the Emax stood at 507%.

On to `CP(C)(=O)c1ccc(-c2ccc(-c3nc4cc(O[C@@H]5CO[C@H]6[C@@H]5OC[C@H]6O)[nH]c4cc3F)cc2)cc1` [Compound I-2-56], for which the EC150 is listed as 1.6 nM and the Emax came out at 618%.

In the case of `O[C@@H]1CO[C@H]2[C@@H]1OC[C@H]2Oc1cc2nc(-c3ccc(N4CCC(OC5CCNC5)CC4)cc3)c(F)cc2[nH]1` (some centres unmarked) [Compound I-2-57], the EC150 is listed as 26 nM and the Emax was 601%.

With `COCCCN1CCN(c2ccc(-c3nc4cc(O[C@@H]5CO[C@H]6[C@@H]5OC[C@H]6O)[nH]c4cc3F)cc2)CC1` [Compound I-2-58], the EC150 was determined as 56 nM and the Emax worked out at 514%.

In the case of `COCCOc1ccc(-c2ccc(-c3nc4cc(O[C@@H]5CO[C@H]6[C@@H]5OC[C@H]6O)[nH]c4cc3F)cc2)cc1F` [Compound I-2-59], the EC150 is recorded as 40 nM and the Emax was determined as 458%.

With `O[C@@H]1CO[C@H]2[C@@H]1OC[C@H]2Oc1cc2nc(-c3ccc(-c4ccc(OC5CCNCC5)cc4)cc3)c(F)cc2[nH]1` [Compound I-2-60], the EC150 is listed as 2 nM and the Emax turned out to be 564%.

For `CCOCCOc1ccc(-c2ccc(-c3nc4cc(O[C@@H]5CO[C@H]6[C@@H]5OC[C@H]6O)[nH]c4cc3F)cc2)cc1` [Compound I-2-61], the EC150 worked out at 5.1 nM and the Emax amounted to 562%.

Regarding `O[C@@H]1CO[C@H]2[C@@H]1OC[C@H]2Oc1cc2nc(-c3ccc(N4CCC(OC5CCNCC5)CC4)cc3)c(F)cc2[nH]1` [Compound I-2-62], the EC150 was 47 nM and the Emax came to 514%.

Turning to `O[C@@H]1CO[C@H]2[C@@H]1OC[C@H]2Oc1cc2nc(-c3ccc(-c4ccc(OCCC(F)F)cc4)cc3)c(F)cc2[nH]1` [Compound I-2-63], the EC150 was 21 nM and the maximum response (Emax) came to 520%.

Take `O[C@@H]1CO[C@H]2[C@@H]1OC[C@H]2Oc1cc2nc(-c3ccc(C#CC4CCNCC4)cc3)c(F)cc2[nH]1` [Compound I-2-64]: the EC150 is listed as 16 nM and the Emax stood at 536%.

As to `CP(C)(=O)c1ccc(-c2ccc(-c3nc4cc(O[C@@H]5CO[C@H](CO)C5)[nH]c4cc3F)cc2)cc1` [Compound I-2-65], the EC150 amounted to 0.6 nM and the maximum response (Emax) turned out to be 673%.

For the compound `OCC1(c2ccc(-c3nc4cc(O[C@@H]5CO[C@H]6[C@@H]5OC[C@H]6O)[nH]c4cc3F)cc2)CC1` [Compound I-2-66], the EC150 is given as 1.1 nM and the Emax came out at 580%.

`CC(C)(C)P(=O)(c1ccc(-c2ccc(-c3nc4cc(O[C@@H]5CO[C@H]6[C@@H]5OC[C@H]6O)[nH]c4cc3F)cc2)cc1)C(C)(C)C` [Compound I-2-67]: the EC150 was found to be 22 nM and the Emax came out at 555%.

Turning to `O[C@@H]1CO[C@H]2[C@@H]1OC[C@H]2Oc1cc2nc(-c3ccc(-c4ccc(OC5CCOC5)cc4)cc3)c(F)cc2[nH]1` (some centres unmarked) [Compound I-2-69], the EC150 stood at 13 nM and the Emax stood at 557%.

For the compound `CCP(=O)(CC)c1ccc(-c2ccc(-c3nc4cc(O[C@@H]5CO[C@H]6[C@@H]5OC[C@H]6O)[nH]c4cc3F)cc2)cc1` [Compound I-2-72], the EC150 is listed as 2.7 nM and the Emax worked out at 591%.

Consider `CS(C)(=O)=NC1CC=C(c2ccc(-c3nc4cc(O[C@@H]5CO[C@H](CO)C5)[nH]c4cc3F)cc2)CC1` (some centres unmarked) [Compound I-2-73], for which the EC150 was determined as 4.2 nM and the maximum response (Emax) stood at 681%.

Turning to `COCC(=O)Nc1ccc(-c2ccc(-c3nc4cc(O[C@@H]5CO[C@H](CO)C5)[nH]c4cc3F)cc2)cc1` [Compound I-2-74], the EC150 was found to be 1.2 nM and the Emax worked out at 656%.

As to `COCCOc1cc(F)c(-c2ccc(-c3nc4cc(O[C@@H]5CO[C@H]6[C@@H]5OC[C@H]6O)[nH]c4cc3F)cc2)c(F)c1` [Compound I-2-76], the EC150 was determined as 20 nM and the Emax came to 490%.

For the compound `CCP(=O)(CC)c1ccc(-c2ccc(-c3nc4cc(O[C@@H]5CO[C@H](CO)C5)[nH]c4cc3F)cc2)cc1` [Compound I-2-78], the EC150 came to 1.5 nM and the Emax is 573%.

Take `CS(=O)(=O)c1ccc(-c2ccc(-c3nc4cc(O[C@@H]5CO[C@H](CO)C5)[nH]c4cc3F)cc2)cc1` [Compound I-2-79]: the EC150 was 0.69 nM and the Emax was 591%.

As to `OC[C@@H]1C[C@H](Oc2cc3nc(-c4ccc(C5(CO)CC5)cc4)c(F)cc3[nH]2)CO1` [Compound I-2-80], the EC150 was 2 nM and the Emax worked out at 558%.

Consider `O=C(c1ccc(-c2ccc(-c3nc4cc(O[C@@H]5CO[C@H](CO)C5)[nH]c4cc3F)cc2)cc1)N1CCOCC1` [Compound I-2-81], for which the EC150 amounted to 0.78 nM and the Emax stood at 591%.

As to `COCCNC(=O)c1ccc(-c2ccc(-c3nc4cc(O[C@@H]5CO[C@H](CO)C5)[nH]c4cc3F)cc2)cc1` [Compound I-2-82], the EC150 stood at 0.5 nM and the Emax was 591%.

Consider `COCCN(C)C(=O)c1ccc(-c2ccc(-c3nc4cc(O[C@@H]5CO[C@H](CO)C5)[nH]c4cc3F)cc2)cc1` [Compound I-2-83], for which the EC150 is reported as 0.73 nM and the Emax was determined as 581%.

Consider `O[C@@H]1CO[C@H]2[C@@H]1OC[C@H]2Oc1cc2nc(-c3ccc(-c4ccc(O[C@H]5CCOC5)cc4)cc3)c(F)cc2[nH]1` [Compound I-2-85], for which the EC150 is reported as 1.5 nM and the Emax was 500%.

As to `CONC(=O)c1ccc(-c2ccc(-c3nc4cc(O[C@@H]5CO[C@H](CO)C5)[nH]c4cc3F)cc2)cc1` [Compound I-2-86], the EC150 worked out at 0.53 nM and the Emax is 592%.

`CNC(=O)c1ccc(-c2ccc(-c3nc4cc(O[C@@H]5CO[C@H](CO)C5)[nH]c4cc3F)cc2)cc1` [Compound I-2-88]: the EC150 was found to be 0.62 nM and the Emax stood at 683%.

On to `CP(C)(=O)c1ccc(-c2ccc(-c3nc4cc(O[C@@H]5CO[C@H](CO)C5(F)F)[nH]c4cc3F)cc2)cc1` [Compound I-2-89], for which the EC150 is reported as 0.94 nM and the Emax was 556%.

For the compound `OC[C@H]1OC[C@@H](Oc2cc3nc(-c4ccc(C5(CO)CC5)cc4)c(F)cc3[nH]2)C1(F)F` [Compound I-2-90], the EC150 is 1.9 nM and the Emax is 406%.

For the compound `CC(=O)NC1CC=C(c2ccc(-c3nc4cc(O[C@@H]5CO[C@H](CO)C5)[nH]c4cc3F)cc2)CC1` (some centres unmarked) [Compound I-2-92], the EC150 is 0.87 nM and the Emax is 702%.

For the origin of these results see patent publication US10478425B2, “5-phenylazaindole derivative having AMPK-activating activity” (Shionogi & Co., Ltd., priority 2016, dated 2019).
